# In patent US9365851B2, “Spalt-like transcription factor 4 (SALL4) and uses thereof” (National University of Singapore, priority 2011, dated 2016):
# Legend:
# SNU-387 cells = assay: Cell viability assay (MTT/MTS); assay type: cell-based, human; details: SNU-387, wt peptide + PTEN inhibitor
# Procedure: (§1) Cell viability was determined 72 hours after peptide treatments. Absorbance at 490 nm is directly correlated to cell viability. Wild type functional SALL4 peptide (wt), mutant non-functional SALL4 peptide (Mut.), trichostatin A (TSA), scrambled control peptide (Scr.), wild type peptide+PTEN inhibitor SF1670 (wt+Inh.) were given to the cells at the indicated concentration. PTEN inhibitor concentration was 400 nM. (31C, 31D) Western blot analyses of the effects of peptides on PTEN, AKT, and pAKT expression on SNU-398 (31C) and SNU-387 (31D) cells 72 hours following peptide treatments. 20 μM of wt or Scr. peptide or 100 nM of TSA was used. PTEN inhibitor concentration was 400 nM. (31E) Representative images show NOD/SCID mice transplanted with Scr peptide- and wt peptide-treated SNU-398 cells (left) and the dissected subcutaneous tumors (right). Arrow indicates subcutaneous tumor. (31F) Growth curve of subcutaneous tumors (left panel) and tumor weight of tumors dissected at day 26 post-transplantation (right panel). Results are mean±s.d. n=5; * P<0.05. (31G) Representative images show NOD/SCID mice transplanted with 3 million SNU-398 cells at the left flank and treated intraperitoneally for five consecutive days with 56 mg/kg body weight TAT-Mut. peptide or 60 mg/kg body weight wt peptide (top panel) and the dissected subcutaneous tumors (bottom). (31H) Tumor weight of tumors dissected at day 18 post-transplantation and post-treatment of mice treated intraperitoneally with TAT fusion peptides as described in 5 g. Results are mean±s.d. n=5; * P<0.05.
# (§2) Cell viability assay (MTT) (Invitrogen) was performed according to the manufacturer's instructions. Briefly—10000 cells were seeded in 100 ul medium in 96 well plates. The next day cells were treated as indicated on the figures. At the designated time after the treatment 20 ul of 5 mg/ml MTT solution was added to each well. After 3.5 h incubation at 37 C the medium was removed and the reaction was terminated with a solution of 4 mM HCl, 0.1% Nondet P-40 (NP40) all in isopropanol in dark on orbital shaker for […]. at room temperature. The absorbance was read at 590 nm with a reference filter of 620 nm in Spectromax M3 (ABI) spectrophotometer.
# 7000 cells were seeded in each wells of a microtiter plate in 100 μL of complete medium. Cells from each treatment were seeded in duplicate. Controls using the same medium without cells were set up in parallel. At various time points, 317 μg/mL of 3-(4,5-dimethylthiazol-2-yl)-5-(3-carboxymethoxyphenyl)-2-(4-sulfophenyl)-2H-tetrazolium (CellTiter96® AQueous One Solution Cell Proliferation Assay, Promega) was added to each well. After four hours incubation of the tetrazolium salt, absorbance at 490 nm was read by a microplate reader.
# SNU-398 cells = assay: Cell viability assay (MTT/MTS); assay type: cell-based, human; details: for cell viability on co-treatment with wt peptide (rescue): SNU-398, wt peptide + PTEN inhibitor
# Procedure: as §1, §2
# (§3) Multiple leukemic and solid tumor cancer cell lines with high or low/no SALL4 expression (FIG. 10A) were chosen to test the biological effect(s) of the wild type peptide. Wild type or scrambled peptide was delivered into tumor cells at various concentrations, and their effects on cells were evaluated 72 hours post-treatment by the MTS cell viability assay. […] The effect of wild type peptide is SALL4-specific, as it had no effect on KBM5, an AML cell line with undetectable endogenous SALL4 expression. We were surprised to see that the wild type peptide had no effect on a high SALL4-expressing endometrioid cancer cell line, AN3CA. This prompted checking whether PTEN, a gene repressed by SALL4 through its interaction with NuRD 27, was present in this cell line. According to the model herein, the function of wild type peptide requires both the expression of SALL4 and intact SALL4 downstream target genes, such as PTEN. In tumor cells with PTEN deletion, even though wild type peptide could compete with endogenous SALL4 in interacting with the HDAC complex, an anti-proliferative effect might not be observed. Therefore, expression of PTEN was evaluated in AN3CA cells along with other cell lines. While PTEN protein was present in all the other cell lines, it was absent in AN3CA cells (FIG. 10C), with reported deletion mutation of the gene in this cell line 40,41. […] Furthermore, the anti-proliferative effect also required certain downstream targets, such as PTEN.
# 7000 cells were seeded in each wells of a microtiter plate in 100 μL of complete medium. Cells from each treatment were seeded in duplicate. Controls using the same medium without cells were set up in parallel. […]
# PTEN/AKT pathway = PTEN/AKT pathway expression in SNU-398 cells after treatment (Western blot, mRNA); assay type: cell-based, human; details: SNU-398
# Description: The induction of Pten expression was not affected when wt peptide was administrated together with a Pten inhibitor. AKT, a molecule with levels of phosphorylation controlled by the expression of Pten was affected by the wt peptide addition accordingly. […] The effect of wt peptide on pAKT was abrogated by the Pten inhibitor. […] In contrast, the protein expression level of endogenous Pten was very high in the none-SALL4 expressing SNU387 cells.
# Then tested was whether this peptide could reverse the repressive effect of SALL4 on its target genes. The focus was onPTEN, since it is implicated in SALL4-mediated leukemogenesis (Yang et al., Blood, 112:805-813 (2008); Lu et al., PLoS One, 4:e5577 (2009)). In addition, it was previously reported that SALL4 could specifically bind to the PTEN promoter region in a chromatin immunoprecipitation (ChIP) assay (Lu et al., PLoS One, 4:e5577 (2009)). When SALL4 was overexpressed in 293T cells, an enrichment of SALL4 as well as decreased H3 acetylation at this binding site was observed, which correlated with decreased PTEN RNA expression (Lu et al., PLoS One, 4:e5577 (2009))). Therefore, it was hypothesized that SALL4 could recruit the HDAC/NuRD complex to repress PTEN, and that the wild type peptide would compete with endogenous SALL4 in recruiting the HDAC/NuRD complex to the PTEN promoter, and release the repression effect of SALL4 on PTEN. Furthermore, this model would predict that wild type peptide treatment of SALL4-expressing cells would lead to increased epigenetic markers of gene activation, such as H3 acetylation, at the PTEN promoter binding site, as well as an increase in PTEN expression. To test this possibility, SNU-398 cells were treated with scrambled or wild type peptide and subsequently evaluated for PTEN expression and H3 acetylation at the SALL4 binding site at the PTEN promoter region. […] Therefore, the results herein are compatible with the model that SALL4 recruits HDACs to repress PTEN expression, and blocking the SALL4-HDAC interaction with the wild type peptide results in increased expression of PTEN.
# To confirm the involvement of PTEN tumor suppressor in SALL4 peptide-induced reduction of number of viable HCC cells, PTEN expression was analyzed by western blot upon drug treatment. […] Whether the increase in PTEN expression upon SALL4 peptide treatment has an effect in PI3K signalling by dephosphorylating AKT was examined.
# To confirm the involvement of the PTEN tumor suppressor in the SALL4 peptide-induced reduction of HCC cell viability, PTEN expression was analyzed by western blot upon drug treatment. […] If the increase in PTEN expression has an effect in PI3K signaling was next examined. PTEN functions as a phosphatase to dephosphorylate AKT.
# KBM5 cells = assay: MTS cell viability assay; assay type: cell-based; details: KBM5, wt peptide + PTEN inhibitor
# Procedure: as §3
# (§4) To further test whether the effect of wild type peptide on tumor cells is related to PTEN, a PTEN inhibitor (SF1670) was used (Li et al., Blood, 117:6702-6713). […] As a control for the specificity of SALL4, KBM5, a non-SALL4-expressing cell line was also treated with PTEN inhibitor.
# THP1 cells = assay: MTS cell viability assay; assay type: cell-based; details: THP1, wt peptide + PTEN inhibitor
# Procedure: as §3, §4
# HDAC complex = target: T1, HDAC complex (Homo sapiens, UniProt Q09028); assay: Fluorescent polarization competitive binding in SNU-398 nuclear extracts; details: Example 6
# T1 construct: endogenous in cells; host or cells: SNU-398 nuclear extract
# Procedure: Below are the amino acid sequences of the peptides used in this study. In the mutant peptide (mut), Lys 5 is replaced with an alanine residue. […] In the first lane marked “Input”, 10% of the extracts were subjected to western blot analysis without immunoprecipitation. […] Extracts were subsequently immunoprecipitated with anti-FITC antibody and the complexes pulled down were subjected to an HDAC activity assay as described in the methods. TSA was added at a concentration of 100 nM. Input is the sample in which 10% of the extract was assayed for HDAC activity without the immunoprecipitation step. […] Competitive binding of nonlabeled wild type or scrambled peptides was measured by fluorescent polarization. […] The fluorescent polarization (y axis) is decreased if the FITC-labeled peptide is displaced from a larger complex.
# Next tested was the binding affinity of the wild type and scrambled peptides to the HDAC complex. For this, Fluorescent Polarization (FP), a technology based on molecular movement and rotation in which fluorescent molecules are excited with polarized light, was used. If the fluorescent molecules are part of a large complex, they rotate less and the emitted light has high polarity. In contrast, smaller molecules rotate faster and have low polarity (“depolarized”). […] Using this approach, FITC-labeled wild type or scrambled peptides were first mixed with nuclear extracts from SNU-398 cells. Serial dilutions of unlabeled wild type or scrambled peptides were then added as competitors respectively, and measured by FP assay.
# T1 sequence (Q09028 whole entry, one chain of several): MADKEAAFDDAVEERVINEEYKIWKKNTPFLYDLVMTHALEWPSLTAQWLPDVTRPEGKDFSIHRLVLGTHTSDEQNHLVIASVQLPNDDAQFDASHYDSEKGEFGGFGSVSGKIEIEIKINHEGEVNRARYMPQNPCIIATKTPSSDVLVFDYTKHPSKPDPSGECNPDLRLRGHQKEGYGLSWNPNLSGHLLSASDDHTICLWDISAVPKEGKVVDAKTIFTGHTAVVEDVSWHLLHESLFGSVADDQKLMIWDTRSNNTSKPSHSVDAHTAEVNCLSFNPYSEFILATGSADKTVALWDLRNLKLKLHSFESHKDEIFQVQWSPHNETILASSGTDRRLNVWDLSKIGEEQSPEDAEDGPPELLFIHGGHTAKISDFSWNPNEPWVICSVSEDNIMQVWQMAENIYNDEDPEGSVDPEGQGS
Molecule,cell viability on co-treatment with wt peptide (SNU-387 cells),cell viability on co-treatment with wt peptide (rescue) (SNU-398 cells),cell viability on co-treatment with wt peptide (rescue) (SNU-398 cells; listed as PTEN inhibitor),cell viability on co-treatment with wt peptide (rescue) (SNU-398 cells; listed as SF-1670),effect of wt peptide on pAKT on co-treatment with PTEN inhibitor (PTEN/AKT pathway; listed as PTEN inhibitor),effect of wt peptide on pAKT on co-treatment with PTEN inhibitor (PTEN/AKT pathway; listed as Pten inhibitor),cell viability on co-treatment with wt peptide (KBM5 cells),cell viability on co-treatment with wt peptide (rescue) (THP1 cells),"cell viability / number of viable cells (SNU-398 cells; SNU-398 (high SALL4), 72 h)",binding affinity by FP (HDAC complex)
"CC(C)(C)C(=O)Nc1ccc2c(c1)C(=O)C(=O)c1ccccc1-2 [SF1670, reference compound]",showed no effect as well,able to rescue the phenotype,able to rescue the phenotypes,restored the cell viability to a baseline level,can be rescued,abrogated,showed no effect as well,restored the cell viability to the baseline levels,,
"NH2-YGRKKRRQRRR-MSAAAQAKPHI-COOH (H-YGRKKRRQRRRMSAAAQAKPHI-OH) [TAT-Mut, reference compound]",,,,,,,,,did not exhibit such cell killing effect,minimal binding
